Reference: patent US10485808B2, “Selective progesterone receptor modulators (SPRM) and stabilized estrogen level in patient” (BAYER PHARMA AKTIENGESELLSCHAFT, priority 2017, dated 2019)

How the values were obtained:
[1] = tested on: women diagnosed with uterine fibroids; assay: Study 15788: estradiol concentrations in serum, 1x12 weeks treatment; format: in vivo, human
Experimental: Example 4: Clinical Study in Women Diagnosed with Uterine Fibroids During a 1×12 Weeks/84 Days Treatment with Compound 1
Study protocol (N^o 15788):
Doses: 0.5 mg, 1 mg, 2 mg, or 4 mg once daily
(§1) Route of administration: Oral
Duration of treatment: 1×12 weeks (84 days)
Women, 18 to 50 years old, with uterine fibroids documented by transvaginal or abdominal ultrasound at screening with at least 1 uterine fibroid with largest diameter 3 cm and Heavy Menstrual Bleeding (HMB) 80 mL were eligible for enrolment in the study.
(§2) Following screening visit 1 (Visit 1), there was a screening period of up to 90 days to arrange for complete results of all baseline assessments. […] Every effort was made to keep the duration of the screening period to a minimum.
Eligible subjects were equally randomized to one of the treatment groups (Placebo, 0.5 mg, 1 mg, 2 mg, or 4 mg Compound 1). Treatment was started during the first week of the menstrual cycle following randomization. The treatment period consisted of 12 weeks (84 days) of daily tablet intake.
In this study, estradiol levels were measured • At the End of Treatment (EoT) visit and • Randomization visit 3.

[2] = tested on: women diagnosed with uterine fibroids; assay: Study 17541/A1: estradiol concentrations in serum, 1x24 weeks treatment; format: in vivo, human; details: for Estradiol concentrations in serum, Max / Estradiol concentrations in serum, Mean / Estradiol concentrations in serum, Median / Estradiol concentrations in serum, Min: Cp1 2 mg once daily oral
Experimental: Example 6: Clinical Study in Women Diagnosed with Uterine Fibroids During a 1×24 Weeks Treatment with Compound 1
Study protocol (N^o 17541/A1):
as §1
Duration of treatment: 1×24 weeks
Women, 18 to 50 years old, with uterine fibroids documented by transvaginal or abdominal ultrasound at screening with at least 1 uterine fibroid with largest diameter >3 cm and Heavy Menstrual Bleeding (HMB)>80 mL were eligible for enrolment in the study.
as §2
Eligible subjects were equally randomized to treatment 2 mg of Compound 1. Treatment was started during the first week of the menstrual cycle following randomization. The treatment period consisted of 24 weeks of daily tablet intake.
In this study, estradiol levels were measured • Treatment Visit 3 (corresponding to the end of 12 weeks treatment), • Treatment Visit 6 (corresponding to the end of 24 weeks treatment).

[3] = Cp1 0.5 mg once daily oral, End of Treatment (12 weeks)
[4] = Cp1 0.5 mg once daily oral, Randomization
[5] = Cp1 1 mg once daily oral, End of Treatment (12 weeks)
[6] = Cp1 1 mg once daily oral, Randomization
[7] = Cp1 2 mg once daily oral, End of Treatment (12 weeks)
[8] = Cp1 2 mg once daily oral, Randomization
[9] = Cp1 4 mg once daily oral, End of Treatment (12 weeks)
[10] = Cp1 4 mg once daily oral, Randomization
[11] = Treatment Visit 3 (end of 12 weeks treatment)
[12] = Treatment Visit 6 (end of 24 weeks treatment)

## C[C@]12C[C@H](c3ccc(S(C)(=O)=O)cc3)C3=C4CCC(=O)C=C4CC[C@H]3[C@@H]1CC[C@@]2(O)C(F)(F)C(F)(F)F [Compound 1, (11β,17β)-17-Hydroxy-11-[4-(methylsulphonyl)phenyl]-17-(pentafluoroethyl)estra-4,9-dien-3-one]
[1]; 0.5-4 mg once daily, 12 weeks
  Estradiol levels under treatment compared to baseline: moderately suppressed
  Safety concerns from the data analysed: no safety concerns were identified
[1]; [3]
  Estradiol concentrations in serum, Max: 357.5 pg/mL
  Estradiol concentrations in serum, Mean: 97.3 pg/mL
  Estradiol concentrations in serum, Median: 56.9 pg/mL
  Estradiol concentrations in serum, Min: 8.3 pg/mL
[1]; [4]
  Estradiol concentrations in serum, Max: 318.6 pg/mL
  Estradiol concentrations in serum, Mean: 115.78 pg/mL
  Estradiol concentrations in serum, Median: 100.2 pg/mL
  Estradiol concentrations in serum, Min: 7.1 pg/mL
[1]; [5]
  Estradiol concentrations in serum, Max: 384.9 pg/mL
  Estradiol concentrations in serum, Mean: 72.85 pg/mL
  Estradiol concentrations in serum, Median: 50 pg/mL
  Estradiol concentrations in serum, Min: 11.8 pg/mL
[1]; Cp1 1 mg once daily oral, End of Treatment (12 weeks), listed as Cp1
  Estradiol concentrations in serum, Median: 50.1 pg/mL
[1]; [6]
  Estradiol concentrations in serum, Max: 490.2 pg/mL
  Estradiol concentrations in serum, Mean: 120.72 pg/mL
  Estradiol concentrations in serum, Median: 103.65 pg/mL
  Estradiol concentrations in serum, Min: 21.5 pg/mL
[1]; [7]
  Estradiol concentrations in serum, Max: 433.9 pg/mL
  Estradiol concentrations in serum, Mean: 76.23 pg/mL
  Estradiol concentrations in serum, Median: 50 pg/mL
  Estradiol concentrations in serum, Min: 10.5 pg/mL
[1]; Cp1 2 mg once daily oral, End of Treatment (12 weeks), listed as Cp1
  Estradiol concentrations in serum, Median: 49.95 pg/mL
[1]; [8]
  Estradiol concentrations in serum, Max: 407.8 pg/mL
  Estradiol concentrations in serum, Mean: 111.25 pg/mL
  Estradiol concentrations in serum, Median: 96.6 pg/mL
  Estradiol concentrations in serum, Min: 6.7 pg/mL
[1]; [9]
  Estradiol concentrations in serum, Max: 255.3 pg/mL
  Estradiol concentrations in serum, Mean: 56.51 pg/mL
  Estradiol concentrations in serum, Median: 39 pg/mL
  Estradiol concentrations in serum, Min: 9.5 pg/mL
[1]; Cp1 4 mg once daily oral, End of Treatment (12 weeks), listed as Cp1
  Estradiol concentrations in serum, Median: 38.7 pg/mL
[1]; [10]
  Estradiol concentrations in serum, Max: 347.6 pg/mL
  Estradiol concentrations in serum, Mean: 117.05 pg/mL
  Estradiol concentrations in serum, Median: 101.7 pg/mL
  Estradiol concentrations in serum, Min: 6.8 pg/mL
[1]; all Doses, data not shown
  Mean estradiol values after the EoT: returned to baseline levels
[2]; 2 mg once daily, 24 weeks
  Estradiol levels under treatment compared to baseline: moderately suppressed
  Safety concerns from the data analysed: no safety concerns were identified
[2]; Baseline
  Estradiol concentrations in serum, Max: 644.2 pg/mL
  Estradiol concentrations in serum, Mean: 135.97 pg/mL
  Estradiol concentrations in serum, Median: 93.55 pg/mL
  Estradiol concentrations in serum, Min: 29.4 pg/mL
[2]; [11]
  Estradiol concentrations in serum, Max: 557.5 pg/mL
  Estradiol concentrations in serum, Mean: 77.46 pg/mL
  Estradiol concentrations in serum, Median: 47.50 pg/mL
  Estradiol concentrations in serum, Min: 11.0 pg/mL
[2]; [12]
  Estradiol concentrations in serum, Max: 132.5 pg/mL
  Estradiol concentrations in serum, Mean: 44.69 pg/mL
  Estradiol concentrations in serum, Median: 42.50 pg/mL
  Estradiol concentrations in serum, Min: 7.9 pg/mL
[2]; data not shown
  Mean estradiol values after the EoT: returned to baseline levels
